Measurements from patent publication US8058228B2, “Leptin peptide antagonists” (Boston Biomedical Research Institute, priority 2004, dated 2011).
pKi: −log10 of the molar value. “Also recorded” adds a separate entry of the source.

Key:
OB-R [1] = assay: LIF secretion by rabbit endometrial cell cultures (ELISA); format: cell-based
Protocol: Rabbit endometrial cells (5×10^5 cells/well) were cultured for 5-9 days in DMEM-MCDB105 (3:1) medium containing 10% fetal bovine serum (FBS), 5 μg/ml insulin, 1% amphopthericin B, 100 μg/ml streptomycin and 100 U/ml penicillin until confluent layers were obtained. The cells were washed twice with 100 mM phosphate saline buffer (PBS) −2% BSA (w/v), pH 7.2 and cultured for an additional 2 days in the same medium but without FBS (basal medium). This procedure was performed to reduce any effects of cytokines from FBS on the phosphorylation rate of Stat3 as well as the expression of other cytokines and their receptors. Cells were washed as described before and cultured in basal medium containing leptin (0-10 nM), OB-R antibody (1-20 μg/ml) and/or LPA-2 peptides (0-300 nM). Cultures were stopped at 24 h and the cells were used for immunocytochemistry, binding studies and western blot analysis. The conditioned media were collected, lyophilized and stored at −80° C. for ELISA determinations. Duplicate wells were run for each treatment and the experiments repeated at least three times with different cell preparations from different rabbits. Controls were the same cellular preparations cultured in basal medium containing non-specific goat IgGs and LPA-2Sc.
IL-1β from rabbits and humans have sequence differences, but no data is available concerning the sequence of rabbit LIF. In addition, there are no commercial kits for measuring rabbit IL-1β or LIF. […] Conditioned media (n=3 per treatment) from rESC and rEEC cultured in the experimental conditions described above were used to quantify the secretion of LIF by ELISA (LIF-Quantikine®, R&D Systems). Standards, controls, and samples were assayed in duplicate. The intra- and interassay coefficients of variations were between 0.7-12% and 3-7%, respectively.

OB-R [2] = assay: OB-R expression by rabbit endometrial cells (immunocytochemistry, Western blot); format: cell-based; settings: cultures of rESC or rEEC
Protocol: Rabbit endometrial cells (5×10^5 cells/well) were cultured for 5-9 days in DMEM-MCDB105 (3:1) medium containing 10% fetal bovine serum (FBS), 5 μg/ml insulin, 1% amphopthericin B, 100 μg/ml streptomycin and 100 U/ml penicillin until confluent layers were obtained. The cells were washed twice with 100 mM phosphate saline buffer (PBS) −2% BSA (w/v), pH 7.2 and cultured for an additional 2 days in the same medium but without FBS (basal medium). This procedure was performed to reduce any effects of cytokines from FBS on the phosphorylation rate of Stat3 as well as the expression of other cytokines and their receptors. […]
The expression of OB-R was assessed by incubation of rEC for 1 h at room temperature with goat antibodies directed towards the amino terminal ends of human OB-R (R&D system) diluted 1:80 in buffer A.
After culture in the presence of leptin, LPAs or antibodies, the endometrial cells were washed with ice-cold PBS and lysed by homogenization on ice with lysis buffer [[…] Tris, pH 7.4, containing […] NaCl, 2 mM EDTA, 10% glycerol, 50 mM β-glycerophosphate, […] NaF, 1% Nonidet P-40, 2 mM phenyl-methylsulfonyl fluoride, 2 mM sodium orthovanadate, 100 μM antipain, 0.1 mg/ml trypsin inhibitor and protease cocktail inhibitor 1:50 (Sigma)]. […] Protein concentrations were determined using the Bradford protein assay (BioRad Laboratories Inc., Hercules, Calif.). […]

OB-R [3] = assay: Competitive binding of 125I-human leptin to OB-R in rabbit endometrial cell lysates
Protocol: ^125I-human leptin served as ligand and LPA-2 and LPA-2Sc as competitors for the binding to OB-R in cellular extracts. All compounds were diluted in assay buffer (50 mM Tris and 100 mM NaCl, pH 8.5) to promote proper re-folding. Each assay tube contained 50 μl of cellular lysate (100 μg protein from 10^6 cells cultured for two days in basal medium), 50 μl of ^125I-human leptin (100.000 cpm), and 50 μl of LPAs (providing 10^−5-10^−14 M/tube). The tubes were incubated for 24 h at room temperature. Then, 250 μl of 1% BSA (w/v) and 500 μl of 20% polyethylene glycol (w/v) in PBS were added and the tubes were incubated for an additional 12-h period at 4° C. The tubes were centrifuged at 12.000 g for 15 min at 4° C. After careful aspiration of supernatant and complete drying of the tube-walls with filter paper, ^125I-human leptin binding in the precipitates was measured (Beckman 5000, counter). The binding of ^125I-leptin to OB-R in absence of LPAs was set at 100%, and LPA competitive binding values were expressed as percentages of total cpm. Affinity binding constants for LPAs were calculated from the competition curves.

| Substance | effect on leptin induction of LIF secretion (OB-R [1]; rEEC, leptin 3 nM with LPA-2 3 to 300 nM, OB-R antibody 20 μg/ml) | effect on leptin-induced LIF secretion at the higher leptin dose (OB-R [1]; rEEC, leptin 10 nM, equimolar LPA-2 (10 nM)) | expression of OB-R (OB-R [2]) | competition with 125I-leptin for binding to OB-R (OB-R [3]; cellular lysates of rabbit endometrial cells) | pKi (OB-R [3]; competition with 125I-leptin, OB-R expressed by rabbit endometrial cells (rEEC and rESC), protein extracts) | LIF secretion after leptin (OB-R [1]; rEEC and rESC, more evident in rEEC) |
| --- | --- | --- | --- | --- | --- | --- |
| SRNVIQISNDLENLRDLLHVLAFSKS [LPA-2, 26 amino acid peptide, residues 70-95 of helix III of the human leptin molecule; leptin peptide antagonist] | significantly inhibited the leptin (3 nM) induction of LIF secretion | effectively inhibited; also recorded: completely inhibited | did not affect the expression of OB-R | displaced | ~10.22 | – |
| leptin: human recombinant leptin (R&D Systems), OB-R ligand used as stimulus | – | – | did not affect the expression of OB-R | – | – | increased LIF secretion in a dose-dependent manner |
